Measurements reported in PubChem BioAssay (NCI).
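In this assay, cells in 96-well plates receive the compound at five concentrations for 48 hours. Endpoints are linearly interpolated between the surrounding concentrations. The concentration for full growth arrest is given as TGI.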

Tests used:
Assay in all cases: NCI tumour cell line growth inhibition, 48 h
HCT-116 colon = system: HCT-116 colon
SF-268 CNS = system: SF-268 CNS
T-47D breast = system: T-47D breast
SK-MEL-5 melanoma = system: SK-MEL-5 melanoma
MALME-3M melanoma = system: MALME-3M melanoma
K-562 leukemia = system: K-562 leukemia
UACC-62 melanoma = system: UACC-62 melanoma
CAKI-1 renal = system: CAKI-1 renal
MOLT-4 leukemia = system: MOLT-4 leukemia
EKVX NSCLC = system: EKVX NSCLC
NCI/ADR-RES ovarian = system: NCI/ADR-RES ovarian
UACC-257 melanoma = system: UACC-257 melanoma
DU-145 prostate = system: DU-145 prostate
A549 NSCLC = system: A549 NSCLC
SNB-75 CNS = system: SNB-75 CNS
IGROV1 ovarian = system: IGROV1 ovarian
SF-539 CNS = system: SF-539 CNS
NCI-H23 lung = system: NCI-H23 lung
NCI-H522 lung = system: NCI-H522 lung
NCI-H226 lung = system: NCI-H226 lung
OVCAR-3 ovarian = system: OVCAR-3 ovarian
SK-OV-3 ovarian = system: SK-OV-3 ovarian
OVCAR-4 ovarian = system: OVCAR-4 ovarian
MDA-N = system: MDA-N
M14 melanoma = system: M14 melanoma
SN12C renal = system: SN12C renal
CCRF-CEM leukemia = system: CCRF-CEM leukemia
HOP-92 NSCLC = system: HOP-92 NSCLC
MCF7 breast = system: MCF7 breast
U251 CNS = system: U251 CNS
SR leukemia = system: SR leukemia
COLO 205 colon = system: COLO 205 colon
MDA-MB-435 = system: MDA-MB-435
HCT-15 colon = system: HCT-15 colon
NCI-H460 lung = system: NCI-H460 lung
PC-3 prostate = system: PC-3 prostate
BT-549 breast = system: BT-549 breast
RXF 393 renal = system: RXF 393 renal
A498 renal = system: A498 renal
HT29 colon = system: HT29 colon
RPMI-8226 leukemia = system: RPMI-8226 leukemia
HOP-62 NSCLC = system: HOP-62 NSCLC
OVCAR-5 ovarian = system: OVCAR-5 ovarian
KM12 colon = system: KM12 colon
MDA-MB-231 breast = system: MDA-MB-231 breast
TK-10 renal = system: TK-10 renal
OVCAR-8 ovarian = system: OVCAR-8 ovarian
ACHN renal = system: ACHN renal
SK-MEL-2 melanoma = system: SK-MEL-2 melanoma
786-0 renal = system: 786-0 renal
SF-295 CNS = system: SF-295 CNS
SNB-19 CNS = system: SNB-19 CNS
HS 578T breast = system: HS 578T breast
LOX IMVI melanoma = system: LOX IMVI melanoma
UO-31 renal = system: UO-31 renal
SW-620 colon = system: SW-620 colon
SK-MEL-28 melanoma = system: SK-MEL-28 melanoma
HL-60(TB) leukemia = system: HL-60(TB) leukemia

SMILES: OC12CC3c4ccccc4NC3C3Oc4cccc5c4C31CCN(CC1CC1)C2C5 (stereo unspecified)
- TGI (HCT-116 colon): 33.5 µM
- TGI (SF-268 CNS): 41.1 µM
- TGI (T-47D breast): 42.6 µM
- TGI (SK-MEL-5 melanoma): 31.5 µM
- TGI (MALME-3M melanoma): 34.9 µM
- TGI (K-562 leukemia): 52.6 µM
- TGI (UACC-62 melanoma): 33.3 µM
- TGI (CAKI-1 renal): 32.4 µM
- TGI (MOLT-4 leukemia): 73.1 µM
- TGI (EKVX NSCLC): 87.7 µM
- TGI (NCI/ADR-RES ovarian): 47.4 µM
- TGI (UACC-257 melanoma): 32.4 µM
- TGI (DU-145 prostate): 36.5 µM
- TGI (A549 NSCLC): 38.3 µM
- TGI (SNB-75 CNS): 31.5 µM
- TGI (IGROV1 ovarian): 29.8 µM
- TGI (SF-539 CNS): 90.5 µM
- TGI (NCI-H23 lung): 30.6 µM
- TGI (NCI-H522 lung): 39.7 µM
- TGI (NCI-H226 lung): 74.9 µM
- TGI (OVCAR-3 ovarian): 30.7 µM
- TGI (SK-OV-3 ovarian): 34.6 µM
- TGI (OVCAR-4 ovarian): 55.5 µM
- TGI (MDA-N): 35.1 µM
- TGI (M14 melanoma): 33.8 µM
- TGI (SN12C renal): 34.4 µM
- TGI (CCRF-CEM leukemia): 71 µM
- TGI (HOP-92 NSCLC): 24.5 µM
- TGI (MCF7 breast): 32.8 µM
- TGI (U251 CNS): 31.1 µM
- TGI (SR leukemia): 59 µM
- TGI (COLO 205 colon): 39.7 µM
- TGI (MDA-MB-435): 32.3 µM
- TGI (HCT-15 colon): 35.1 µM
- TGI (NCI-H460 lung): 32.4 µM
- TGI (PC-3 prostate): 32.1 µM
- TGI (BT-549 breast): 34.7 µM
- TGI (RXF 393 renal): 27.7 µM
- TGI (A498 renal): 32.2 µM
- TGI (HT29 colon): 34.2 µM
- TGI (RPMI-8226 leukemia): 48.2 µM
- TGI (HOP-62 NSCLC): 32.8 µM
- TGI (OVCAR-5 ovarian): 46.3 µM
- TGI (KM12 colon): 37.3 µM
- TGI (MDA-MB-231 breast): 32.4 µM
- TGI (TK-10 renal): 31.1 µM
- TGI (OVCAR-8 ovarian): 32.3 µM
- TGI (ACHN renal): 34.5 µM
- TGI (SK-MEL-2 melanoma): 35 µM
- TGI (786-0 renal): 32.2 µM
- TGI (SF-295 CNS): 94.1 µM
- TGI (SNB-19 CNS): 36.8 µM
- TGI (HS 578T breast): 46.3 µM
- TGI (LOX IMVI melanoma): 30 µM
- TGI (UO-31 renal): 30.4 µM
- TGI (SW-620 colon): 39.1 µM
- TGI (SK-MEL-28 melanoma): 28.6 µM

SMILES: CC(=O)/C(N=Nc1ccc(-n2c(C)nc3ccc(Br)cc3c2=O)cc1)=C(/C)O
- TGI (HCT-116 colon): > 100 µM
- TGI (SF-268 CNS): > 100 µM
- TGI (T-47D breast): > 100 µM
- TGI (SK-MEL-5 melanoma): > 100 µM
- TGI (K-562 leukemia): > 100 µM
- TGI (UACC-62 melanoma): > 100 µM
- TGI (CAKI-1 renal): > 100 µM
- TGI (MOLT-4 leukemia): > 100 µM
- TGI (EKVX NSCLC): > 100 µM
- TGI (HL-60(TB) leukemia): > 100 µM
- TGI (NCI/ADR-RES ovarian): > 100 µM
- TGI (UACC-257 melanoma): > 100 µM
- TGI (DU-145 prostate): > 100 µM
- TGI (A549 NSCLC): > 100 µM
- TGI (SNB-75 CNS): 77 µM
- TGI (IGROV1 ovarian): > 100 µM
- TGI (SF-539 CNS): > 100 µM
- TGI (NCI-H23 lung): > 100 µM
- TGI (NCI-H226 lung): > 100 µM
- TGI (OVCAR-3 ovarian): > 100 µM
- TGI (SK-OV-3 ovarian): > 100 µM
- TGI (MDA-N): > 100 µM
- TGI (M14 melanoma): > 100 µM
- TGI (SN12C renal): > 100 µM
- TGI (CCRF-CEM leukemia): > 100 µM
- TGI (HOP-92 NSCLC): > 100 µM
- TGI (MCF7 breast): > 100 µM
- TGI (U251 CNS): > 100 µM
- TGI (SR leukemia): > 100 µM
- TGI (COLO 205 colon): > 100 µM
- TGI (MDA-MB-435): > 100 µM
- TGI (HCT-15 colon): > 100 µM
- TGI (NCI-H460 lung): > 100 µM
- TGI (PC-3 prostate): > 100 µM
- TGI (BT-549 breast): > 100 µM
- TGI (A498 renal): > 100 µM
- TGI (HT29 colon): > 100 µM
- TGI (RPMI-8226 leukemia): > 100 µM
- TGI (HOP-62 NSCLC): > 100 µM
- TGI (OVCAR-5 ovarian): > 100 µM
- TGI (KM12 colon): > 100 µM
- TGI (MDA-MB-231 breast): > 100 µM
- TGI (TK-10 renal): > 100 µM
- TGI (OVCAR-8 ovarian): > 100 µM
- TGI (ACHN renal): > 100 µM
- TGI (SK-MEL-2 melanoma): > 100 µM
- TGI (786-0 renal): > 100 µM
- TGI (SF-295 CNS): > 100 µM
- TGI (SNB-19 CNS): > 100 µM
- TGI (HS 578T breast): 91.2 µM
- TGI (LOX IMVI melanoma): > 100 µM
- TGI (UO-31 renal): > 100 µM
- TGI (SW-620 colon): > 100 µM
- TGI (SK-MEL-28 melanoma): > 100 µM
